According to ChEMBL document CHEMBL1201862, “PubChem BioAssay data set” (2004):
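Step 1: Grow cells in 96-well plates. Step 2: Expose to compound for 48 hours at 5 concentrations. Step 3: Interpolate endpoints linearly; if unreached, use highest concentration. GI50: concentration for 50% inhibition of growth.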 Calls of active or inactive are those of the source. Cut-off read from the data, not from the text of the source: active = GI50 up to about 1.1 µM and inactive = higher.

Experiments:
Test in all cases: NCI tumour cell line growth inhibition, 48 h
786-0 = system: 786-0
A549 = system: A549
ACHN = system: ACHN
BT-549 = system: BT-549
CAKI-1 = system: CAKI-1
CCRF-CEM = system: CCRF-CEM
COLO 205 = system: COLO 205
DU-145 = system: DU-145
EKVX = system: EKVX
HCC 2998 = system: HCC 2998
HCT-116 = system: HCT-116
HCT-15 = system: HCT-15
HL-60 = system: HL-60
HOP-62 = system: HOP-62
HOP-92 = system: HOP-92
HT-29 = system: HT-29
Hs-578T = system: Hs-578T
IGROV-1 = system: IGROV-1
K562 = system: K562
KM12 = system: KM12
LOX IMVI = system: LOX IMVI
M14 = system: M14
MCF7 = system: MCF7
MDA-MB-231 = system: MDA-MB-231
MDA-MB-435 = system: MDA-MB-435
MDA-N = system: MDA-N
MOLT-4 = system: MOLT-4
Malme-3M = system: Malme-3M
NCI-H226 = system: NCI-H226
NCI-H23 = system: NCI-H23
NCI-H460 = system: NCI-H460
NCI-H522 = system: NCI-H522
NCI/ADR-RES = system: NCI/ADR-RES
OVCAR-3 = system: OVCAR-3
OVCAR-4 = system: OVCAR-4
OVCAR-8 = system: OVCAR-8
PC-3 = system: PC-3
RPMI-8226 = system: RPMI-8226
RXF 393 = system: RXF 393
SF-268 = system: SF-268
SF-295 = system: SF-295
SF-539 = system: SF-539
SK-MEL-28 = system: SK-MEL-28
SK-MEL-2 = system: SK-MEL-2
SK-MEL-5 = system: SK-MEL-5
SK-OV-3 = system: SK-OV-3
SN12C = system: SN12C
SNB-19 = system: SNB-19
SNB-75 = system: SNB-75
SR = system: SR
SW-620 = system: SW-620
T47D = system: T47D
TK-10 = system: TK-10
U-251 = system: U-251
UACC-257 = system: UACC-257
UACC-62 = system: UACC-62
UO-31 = system: UO-31
A498 = system: A498
OVCAR-5 = system: OVCAR-5

How did the GI50 (786-0) turn out when `Cc1ccc(C2=Nc3cccc4cccc(c34)N2)cc1` was run?
The GI50 was > 100 µM (inactive).

What about the GI50 (A549) of the same compound?
The GI50 was > 100 µM (inactive).

And the GI50 (ACHN)?
The GI50 was > 100 µM (inactive).

What about the GI50 (BT-549) of the same compound?
The GI50 was > 100 µM (inactive).

What about the GI50 (CAKI-1) of the same compound?
The GI50 was > 100 µM (inactive).

What about the GI50 (CCRF-CEM) of the same compound?
Its GI50 is > 100 µM (inactive).

And the GI50 (COLO 205)?
Its GI50 is > 100 µM (inactive).

And the GI50 (DU-145)?
The GI50 was > 100 µM (inactive).

What about the GI50 (EKVX) of the same compound?
Its GI50 is > 100 µM (inactive).

And the GI50 (HCC 2998)?
The GI50 was > 100 µM (inactive).

And the GI50 (HCT-116)?
Its GI50 is > 100 µM (inactive).

What about the GI50 (HCT-15) of the same compound?
The GI50 was greater than 100 µM.

What about the GI50 (HL-60) of the same compound?
The GI50 was > 100 µM (inactive).

And the GI50 (HOP-62)?
Its GI50 is > 100 µM (inactive).

What about the GI50 (HOP-92) of the same compound?
Its GI50 is > 100 µM (inactive).

And the GI50 (HT-29)?
The GI50 was > 100 µM (inactive).

And the GI50 (Hs-578T)?
The GI50 was > 100 µM (inactive).

And the GI50 (IGROV-1)?
The GI50 was > 100 µM (inactive).

What about the GI50 (K562) of the same compound?
Its GI50 is > 100 µM (inactive).

What about the GI50 (KM12) of the same compound?
Its GI50 is > 100 µM (inactive).

And the GI50 (LOX IMVI)?
The GI50 was > 100 µM (inactive).

What about the GI50 (M14) of the same compound?
Its GI50 is > 100 µM (inactive).

And the GI50 (MCF7)?
The GI50 was > 100 µM (inactive).

And the GI50 (MDA-MB-231)?
The GI50 was > 100 µM (inactive).

What about the GI50 (MDA-MB-435) of the same compound?
Its GI50 is > 100 µM (inactive).

And the GI50 (MDA-N)?
Its GI50 is > 100 µM (inactive).

And the GI50 (MOLT-4)?
The GI50 was > 100 µM (inactive).

And the GI50 (Malme-3M)?
Its GI50 is > 100 µM (inactive).

And the GI50 (NCI-H226)?
The GI50 was > 100 µM (inactive).

What about the GI50 (NCI-H23) of the same compound?
Its GI50 is > 100 µM (inactive).

What about the GI50 (NCI-H460) of the same compound?
The GI50 was > 100 µM (inactive).

What about the GI50 (NCI-H522) of the same compound?
Its GI50 is > 100 µM (inactive).

What about the GI50 (NCI/ADR-RES) of the same compound?
The GI50 was > 100 µM (inactive).

And the GI50 (OVCAR-3)?
The GI50 was > 100 µM (inactive).

What about the GI50 (OVCAR-4) of the same compound?
Its GI50 is > 100 µM (inactive).

And the GI50 (OVCAR-8)?
The GI50 was > 100 µM (inactive).

And the GI50 (PC-3)?
The GI50 was > 100 µM (inactive).

And the GI50 (RPMI-8226)?
The GI50 was > 100 µM (inactive).

And the GI50 (RXF 393)?
The GI50 was > 100 µM (inactive).

And the GI50 (SF-268)?
Its GI50 is > 100 µM (inactive).

What about the GI50 (SF-295) of the same compound?
Its GI50 is > 100 µM (inactive).

And the GI50 (SF-539)?
The GI50 was > 100 µM (inactive).

And the GI50 (SK-MEL-28)?
Its GI50 is > 100 µM (inactive).

And the GI50 (SK-MEL-2)?
The GI50 was > 100 µM (inactive).

What about the GI50 (SK-MEL-5) of the same compound?
The GI50 was > 100 µM (inactive).

And the GI50 (SK-OV-3)?
Its GI50 is > 100 µM (inactive).

What about the GI50 (SN12C) of the same compound?
The GI50 was > 100 µM (inactive).

What about the GI50 (SNB-19) of the same compound?
Its GI50 is > 100 µM (inactive).

And the GI50 (SNB-75)?
The GI50 was > 100 µM (inactive).

And the GI50 (SR)?
The GI50 was > 100 µM (inactive).

What about the GI50 (SW-620) of the same compound?
The GI50 was > 100 µM (inactive).

What about the GI50 (T47D) of the same compound?
Its GI50 is > 100 µM (inactive).

What about the GI50 (TK-10) of the same compound?
The GI50 was > 100 µM (inactive).

And the GI50 (U-251)?
Its GI50 is > 100 µM (inactive).

What about the GI50 (UACC-257) of the same compound?
Its GI50 is > 100 µM (inactive).

What about the GI50 (UACC-62) of the same compound?
The GI50 was > 100 µM (inactive).

What about the GI50 (UO-31) of the same compound?
The GI50 was > 100 µM (inactive).

How did the GI50 (786-0) turn out when `CCSCCCC(=O)O` was run?
The GI50 was > 100 µM (inactive).

And the GI50 (A498)?
Its GI50 is > 100 µM (inactive).

And the GI50 (A549)?
Its GI50 is > 100 µM (inactive).

What about the GI50 (ACHN) of the same compound?
Its GI50 is > 100 µM (inactive).

What about the GI50 (BT-549) of the same compound?
The GI50 was > 100 µM (inactive).

What about the GI50 (CAKI-1) of the same compound?
The GI50 was > 100 µM (inactive).

And the GI50 (CCRF-CEM)?
The GI50 was > 100 µM (inactive).

And the GI50 (COLO 205)?
Its GI50 is > 100 µM (inactive).

What about the GI50 (DU-145) of the same compound?
Its GI50 is > 100 µM (inactive).

And the GI50 (EKVX)?
The GI50 was > 100 µM (inactive).

And the GI50 (HCC 2998)?
The GI50 was > 100 µM (inactive).

And the GI50 (HCT-116)?
The GI50 was > 100 µM (inactive).

And the GI50 (HCT-15)?
Its GI50 is greater than 100 µM.

What about the GI50 (HL-60) of the same compound?
Its GI50 is > 100 µM (inactive).

What about the GI50 (HOP-62) of the same compound?
The GI50 was > 100 µM (inactive).

And the GI50 (HT-29)?
The GI50 was > 100 µM (inactive).

And the GI50 (Hs-578T)?
The GI50 was > 100 µM (inactive).

And the GI50 (IGROV-1)?
The GI50 was > 100 µM (inactive).

And the GI50 (K562)?
Its GI50 is > 100 µM (inactive).

And the GI50 (KM12)?
The GI50 was > 100 µM (inactive).

What about the GI50 (LOX IMVI) of the same compound?
The GI50 was > 100 µM (inactive).

What about the GI50 (M14) of the same compound?
The GI50 was > 100 µM (inactive).

And the GI50 (MCF7)?
Its GI50 is > 100 µM (inactive).

And the GI50 (MDA-MB-231)?
Its GI50 is > 100 µM (inactive).

And the GI50 (MDA-MB-435)?
Its GI50 is > 100 µM (inactive).

What about the GI50 (MDA-N) of the same compound?
Its GI50 is > 100 µM (inactive).

And the GI50 (MOLT-4)?
The GI50 was > 100 µM (inactive).

And the GI50 (Malme-3M)?
The GI50 was > 100 µM (inactive).

What about the GI50 (NCI-H226) of the same compound?
The GI50 was > 100 µM (inactive).

And the GI50 (NCI-H23)?
Its GI50 is > 100 µM (inactive).

And the GI50 (NCI-H522)?
Its GI50 is > 100 µM (inactive).

What about the GI50 (NCI/ADR-RES) of the same compound?
Its GI50 is > 100 µM (inactive).

What about the GI50 (OVCAR-3) of the same compound?
Its GI50 is > 100 µM (inactive).

What about the GI50 (OVCAR-4) of the same compound?
Its GI50 is > 100 µM (inactive).

And the GI50 (OVCAR-5)?
Its GI50 is > 100 µM (inactive).

What about the GI50 (OVCAR-8) of the same compound?
The GI50 was > 100 µM (inactive).

And the GI50 (PC-3)?
The GI50 was > 100 µM (inactive).

What about the GI50 (RPMI-8226) of the same compound?
Its GI50 is > 100 µM (inactive).

And the GI50 (RXF 393)?
The GI50 was > 100 µM (inactive).

What about the GI50 (SF-268) of the same compound?
Its GI50 is > 100 µM (inactive).

What about the GI50 (SF-295) of the same compound?
The GI50 was > 100 µM (inactive).

What about the GI50 (SK-MEL-28) of the same compound?
Its GI50 is > 100 µM (inactive).

And the GI50 (SK-MEL-2)?
The GI50 was > 100 µM (inactive).

And the GI50 (SK-MEL-5)?
The GI50 was > 100 µM (inactive).

What about the GI50 (SK-OV-3) of the same compound?
Its GI50 is > 100 µM (inactive).

And the GI50 (SN12C)?
The GI50 was > 100 µM (inactive).

And the GI50 (SNB-19)?
Its GI50 is > 100 µM (inactive).

And the GI50 (SNB-75)?
The GI50 was > 100 µM (inactive).

What about the GI50 (SR) of the same compound?
Its GI50 is > 100 µM (inactive).

And the GI50 (SW-620)?
Its GI50 is > 100 µM (inactive).

And the GI50 (T47D)?
The GI50 was > 100 µM (inactive).

What about the GI50 (TK-10) of the same compound?
Its GI50 is > 100 µM (inactive).

What about the GI50 (U-251) of the same compound?
Its GI50 is > 100 µM (inactive).

What about the GI50 (UACC-257) of the same compound?
The GI50 was > 100 µM (inactive).

And the GI50 (UACC-62)?
The GI50 was > 100 µM (inactive).

And the GI50 (UO-31)?
Its GI50 is > 100 µM (inactive).
